Assay: xn = mol fraction of the nth substance listed
Conditions: 101 kPa, Liquid; for mass density: Vibrating tube method; for viscosity: Vibrating wire viscometry; for speed of sound: ultrasonic interferometer

CCN(CC)CC.O=P(O)(O)O [triethylammonium dihydrogen phosphate] + CN1CCCC1=O
Conditions | mass density [kg/m3] | speed of sound [m/s] | viscosity [mPa·s]
298.15 K, x1 = 0.0115 | 1032 | 1574 | 1.95
298.15 K, x1 = 0.0257 | 1036.63 | 1580 | 2.23
298.15 K, x1 = 0.0702 | 1047.93 | 1602 | 2.5
298.15 K, x1 = 0.0995 | 1054.84 | 1624 | 3.22
298.15 K, x1 = 0.1498 | 1065.79 | 1657 | 4.42
298.15 K, x1 = 0.2409 | 1081.01 | 1711 | 6.12
298.15 K, x1 = 0.282 | 1086.8 | 1735 | 6.52
298.15 K, x1 = 0.3482 | 1094.7 | 1763 | 7.12
298.15 K, x1 = 0.4709 | 1105.46 | 1806 | 10.71
298.15 K, x1 = 0.6161 | 1114.03 | 1831 | 17.12
298.15 K, x1 = 0.6975 | 1117.42 | 1836 | 22.9
298.15 K, x1 = 0.7906 | 1120.24 | 1829 | 31.5
298.15 K, x1 = 0.9135 | 1123.51 | 1817 | 47.02
298.15 K, x1 = 0.9579 | 1124.64 | 1809 | 53.91
298.15 K, x1 = 1 | 1125.7 | 1794 | 64.31
303.15 K, x1 = 0.0115 | 1027.87 | 1558 | 0.97
303.15 K, x1 = 0.0257 | 1032.6 | 1570 | 1.24
303.15 K, x1 = 0.0702 | 1044.24 | 1595 | 2.49
303.15 K, x1 = 0.0995 | 1051.16 | 1620 | 3.17
303.15 K, x1 = 0.1498 | 1061.32 | 1656 | 3.8
303.15 K, x1 = 0.2409 | 1076.95 | 1706 | 5.27
303.15 K, x1 = 0.282 | 1083.03 | 1719 | 5.55
303.15 K, x1 = 0.3482 | 1090.71 | 1753 | 6.53
303.15 K, x1 = 0.4709 | 1101.42 | 1796 | 8.32
303.15 K, x1 = 0.6161 | 1110.51 | 1820 | 13.52
303.15 K, x1 = 0.6975 | 1114.2 | 1826 | 18.9
303.15 K, x1 = 0.7906 | 1117.34 | 1819 | 26.91
303.15 K, x1 = 0.9135 | 1121.34 | 1804 | 41.33
303.15 K, x1 = 0.9579 | 1123.03 | 1791 | 49.31
303.15 K, x1 = 1 | 1124.68 | 1769 | 57.1
308.15 K, x1 = 0.0115 | 1023.39 | 1539 | 1.07
308.15 K, x1 = 0.0257 | 1028.04 | 1544 | 1.05
308.15 K, x1 = 0.0702 | 1039.93 | 1577 | 1.97
308.15 K, x1 = 0.0995 | 1046.49 | 1600 | 2.57
308.15 K, x1 = 0.1498 | 1057.16 | 1636 | 2.91
308.15 K, x1 = 0.2409 | 1072.56 | 1689 | 4.13
308.15 K, x1 = 0.282 | 1078.25 | 1711 | 4.19
308.15 K, x1 = 0.3482 | 1086.21 | 1744 | 5.05
308.15 K, x1 = 0.4709 | 1097.31 | 1789 | 6.42
308.15 K, x1 = 0.6161 | 1106.86 | 1816 | 11
308.15 K, x1 = 0.6975 | 1111.06 | 1819 | 15.83
308.15 K, x1 = 0.7906 | 1114.71 | 1813 | 23.02
308.15 K, x1 = 0.9135 | 1119.77 | 1788 | 35.92
308.15 K, x1 = 0.9579 | 1121.61 | 1769 | 42.41
308.15 K, x1 = 1 | 1123.71 | 1757 | 49.53
313.15 K, x1 = 0.0115 | 1018.9 | 1540 | 1.61
313.15 K, x1 = 0.0257 | 1023.44 | 1552 | 1.37
313.15 K, x1 = 0.0702 | 1034.5 | 1576 | 1.48
313.15 K, x1 = 0.0995 | 1041.32 | 1594 | 1.81
313.15 K, x1 = 0.1498 | 1052.28 | 1630 | 1.88
313.15 K, x1 = 0.2409 | 1067.96 | 1685 | 1.95
313.15 K, x1 = 0.282 | 1074.06 | 1708 | 2.5
313.15 K, x1 = 0.3482 | 1081.89 | 1737 | 2.99
313.15 K, x1 = 0.4709 | 1093.3 | 1785 | 4.42
313.15 K, x1 = 0.6161 | 1103.08 | 1808 | 8.18
313.15 K, x1 = 0.6975 | 1107.89 | 1810 | 11.52
313.15 K, x1 = 0.7906 | 1111.88 | 1804 | 17.2
313.15 K, x1 = 0.9135 | 1117.73 | 1772 | 28.3
313.15 K, x1 = 0.9579 | 1119.92 | 1758 | 33.32
313.15 K, x1 = 1 | 1122.37 | 1730 | 38.31

C[NH+](C)C.O=P([O-])(O)O [trimethylammonium dihydrogen phosphate] + CN1CCCC1=O
Conditions | mass density [kg/m3] | speed of sound [m/s] | viscosity [mPa·s]
298.15 K, x1 = 0.0201 | 1041.43 | 1573 | 2.89
298.15 K, x1 = 0.0391 | 1053.47 | 1586 | 6.08
298.15 K, x1 = 0.1028 | 1089.8 | 1610 | 13.47
298.15 K, x1 = 0.1462 | 1113.92 | 1626 | 18.44
298.15 K, x1 = 0.211 | 1148.18 | 1653 | 25.04
298.15 K, x1 = 0.3267 | 1196.88 | 1680 | 30.52
298.15 K, x1 = 0.3746 | 1213.72 | 1686 | 31.03
298.15 K, x1 = 0.4469 | 1236.58 | 1695 | 31.16
298.15 K, x1 = 0.5751 | 1270.11 | 1695 | 27.7
298.15 K, x1 = 0.7093 | 1297.11 | 1691 | 21.12
298.15 K, x1 = 0.852 | 1325.36 | 1673 | 12.99
298.15 K, x1 = 0.9413 | 1342.23 | 1665 | 8.68
298.15 K, x1 = 0.9719 | 1348.52 | 1665 | 7.48
298.15 K, x1 = 1 | 1353.61 | 1672 | 7.64
303.15 K, x1 = 0.0201 | 1034.74 | 1570 | 2.13
303.15 K, x1 = 0.0391 | 1045.35 | 1582 | 3.98
303.15 K, x1 = 0.1028 | 1081.42 | 1604 | 11.55
303.15 K, x1 = 0.1462 | 1104.62 | 1624 | 15.87
303.15 K, x1 = 0.211 | 1136.57 | 1644 | 21.79
303.15 K, x1 = 0.3267 | 1183.7 | 1671 | 26.64
303.15 K, x1 = 0.3746 | 1200.24 | 1679 | 27.3
303.15 K, x1 = 0.4469 | 1223.4 | 1692 | 26.98
303.15 K, x1 = 0.5751 | 1257.32 | 1692 | 24.1
303.15 K, x1 = 0.7093 | 1286.38 | 1690 | 18.07
303.15 K, x1 = 0.852 | 1317.91 | 1675 | 10.86
303.15 K, x1 = 0.9413 | 1337.6 | 1663 | 7.93
303.15 K, x1 = 0.9719 | 1344.48 | 1662 | 6.79
303.15 K, x1 = 1 | 1350.62 | 1660 | 6.46
308.15 K, x1 = 0.0201 | 1028.37 | 1550 | 1.54
308.15 K, x1 = 0.0391 | 1038.12 | 1564 | 2.3
308.15 K, x1 = 0.1028 | 1073.87 | 1587 | 8.69
308.15 K, x1 = 0.1462 | 1095.84 | 1606 | 11.98
308.15 K, x1 = 0.211 | 1126.55 | 1633 | 16.24
308.15 K, x1 = 0.3267 | 1173.1 | 1663 | 20.11
308.15 K, x1 = 0.3746 | 1189.72 | 1673 | 20.71
308.15 K, x1 = 0.4469 | 1213.08 | 1688 | 20.64
308.15 K, x1 = 0.5751 | 1248.1 | 1693 | 18.68
308.15 K, x1 = 0.7093 | 1279.47 | 1691 | 14.21
308.15 K, x1 = 0.852 | 1311.88 | 1685 | 8.83
308.15 K, x1 = 0.9413 | 1332.36 | 1675 | 7.25
308.15 K, x1 = 0.9719 | 1339.9 | 1673 | 6.6
308.15 K, x1 = 1 | 1347.59 | 1661 | 5.61
313.15 K, x1 = 0.0201 | 1023.28 | 1544 | 1.47
313.15 K, x1 = 0.0391 | 1031.97 | 1560 | 2.82
313.15 K, x1 = 0.1028 | 1065.17 | 1588 | 6.92
313.15 K, x1 = 0.1462 | 1086.37 | 1608 | 9.58
313.15 K, x1 = 0.211 | 1116.83 | 1637 | 12.74
313.15 K, x1 = 0.3267 | 1161.79 | 1672 | 16.43
313.15 K, x1 = 0.3746 | 1178.19 | 1684 | 16.55
313.15 K, x1 = 0.4469 | 1201.94 | 1702 | 16.53
313.15 K, x1 = 0.5751 | 1237.68 | 1708 | 15.2
313.15 K, x1 = 0.7093 | 1270.77 | 1704 | 11.9
313.15 K, x1 = 0.852 | 1305.61 | 1697 | 7.17
313.15 K, x1 = 0.9413 | 1327.25 | 1684 | 6.73
313.15 K, x1 = 0.9719 | 1335.1 | 1682 | 5.76
313.15 K, x1 = 1 | 1344.53 | 1664 | 5.07

Source: the NIST ThermoML archive (doi:10.1016/j.tca.2012.07.004)
